Assay results taken from PMC6445228, “Synthesis and biological evaluation of anti-Toxoplasma gondii activity of a novel scaffold of thiazolidinone derivatives” (Journal of Enzyme Inhibition and Medicinal Chemistry, 2017).
Like-named read-outs stand apart in the source and are kept apart here.

Legend:
[1] = system: T. gondii RH-2 F tachyzoites; assay: Five-day growth inhibition assay (tachyzoite growth, colorimetric); type: cell-based, Toxoplasma gondii; details: 120 h; for IC50: read-out: IC50, median inhibitory concentration, a measure of tachyzoite inhibition; for IC90: read-out: IC90, concentration at which 90% of the tachyzoite growth is inhibited
Experimental: (§1) Using published methods[8]^,[19], all of the prepared N-substituted thiazolidinones derivatives were evaluated in vitro for (i) host cell cytotoxicity as well as for the ability to inhibit tachyzoite growth over a period of 5 days (Table 1), for (ii) the ability to inhibit tachyzoite invasion of host cells (Figure 1), and for (iii) the ability to inhibit intracellular tachyzoite replication (Figure 2).
(§2) Compounds were tested for the ability to inhibit in vitro tachyzoite (T. gondii RH-2 F (50839); ATCC, VA) and human foreskin fibroblast (HFF; ATCC) growth for 120 h using a published colorimetric assay[8]^,[19]. Stock solutions of all compounds were 10 mM in DMSO. Serial 0.5 log10 dilutions (320–0.032 μM) of each compound were tested. Data from three separate experiments were analysed and the IC50, IC90, and TD50 calculated using Calcusyn software (Biosoft, Cambridge, UK). The therapeutic index (TI), a measure of specific anti-T. gondii activity, was calculated with the formula shown under Table 1.
We explored the chemical space and the influence on the biological activity of different groups (substituted aromatic and bicyclic rings) at the lactam NH of the core nucleus. […] In the five-day growth inhibition assay, compounds were added only once, just before addition of tachyzoites, and thus were present for multiple cycles, up to 20, of parasite replication.

[2] = system: human foreskin fibroblast (HFF); assay: Five-day growth inhibition assay, host cell cytotoxicity; details: 120 h
Experimental: as §1, §2

[3] = system: intracellular T. gondii tachyzoites; assay: Replication assay (immunofluorescence, tachyzoites per parasitophorous vacuole); type: cell-based, Toxoplasma gondii; details: 10 μM, added 2 h after infection, 24 h
Experimental: Figure 2. Replication assay of ferrocene-based thiazolidinone derivatives (10 μM). VHL: vehicle (DMSO); Tz: tachyzoites. Data are compiled from results of three independent experiments.
This assay measures a compound’s ability to inhibit tachyzoite replication over a period of 24 h. The numbers of parasitophorous vacuoles (PV) in experimentally treated infected cells containing 1, 2, 4, or 8 + tachyzoites/vacuole were enumerated, graphed, and compared to those of the VHL-treated infected cells. Data for each size vacuole are shown as the fraction of the total number of vacuoles counted in 10–15 fields. Data shown were compiled from three independent experiments. A decrease in the number of tachyzoites in a vacuole indicates inhibition of replication. Toxoplasma gondii tachyzoites only replicate within the PV inside the host cell with one cycle of replication taking 6–8 h. […] Consequently, a decrease in the number of intravacuolar tachyzoites relative to that of VHL indicates inhibition of replication. Specifically, predominance, i.e. the largest fraction of the total number, of PVs containing 1 or 2 tachyzoites indicates replication inhibition.
Lastly, the replication assay interrogates a compound’s ability to inhibit an established intracellular Toxoplasma infection over the relatively short period of 24 h (3–4 cycles of replication). […] Likewise, allowance of just one cycle of replication results in a majority of PVs containing just two tachyzoites. However, a predominance of PVs containing eight or more tachyzoites indicates absence of inhibitory activity over a 24 h period (see detailed explanation above in Experimental Protocols).

[4] = system: extracellular T. gondii tachyzoites invading HFF host cells; assay: Red/green invasion assay (immunofluorescence); type: cell-based, Toxoplasma gondii; details: 10 μM, 20 min preincubation, 1 h at 37 °C on HFF, vs vehicle, p ≤ .05
Experimental: Figure 1. Invasion assay of ferrocene-based thiazolidinone derivatives (10 μM). VHL: vehicle (DMSO). *Significant inhibition of tachyzoite invasion (p ≤ .05, two-tailed Students’ t test). **Significant inhibition of tachyzoite attachment (p ≤ .05, two-tailed Students’ t test). Data are compiled from results of three independent experiments.
The ferrocene-based derivatives (10 μM) were examined for activity directly on extracellular tachyzoites using an established immunofluorescence-based red/green invasion assay. This assay measures a compound’s ability to impede the parasite-driven host cell entry of tachyzoites through the host cell plasma membrane. Invaded (intracellular) tachyzoites are labelled green while tachyzoites attached to the surface, but unable to invade, are labelled red. A decrease in the number of invaded tachyzoites relative to vehicle [VHL (DMSO)] is indicative of invasion inhibition. A decrease in the number of invaded plus attached tachyzoites relative to same of VHL is indicative of inhibition of attachment. Data shown are mean values ± SEM of three independent experiments.
We next evaluated the ability of the ferrocene-based derivatives to act directly upon extracellular tachyzoites by using a standard red/green invasion assay. This assay interrogates compounds for inhibition of the first step in host cell infection, i.e. invasion and entry into susceptible cells. In this assay (Figure 1), cell-free purified tachyzoites were incubated with a test compound (10 μM), sulfadiazine (10 μM), or VHL for 20 min at room temperature before being added to HFF host cells. After allowing 1 h at 37 °C for the tachyzoites to attach and invade, the cells were processed by immunofluorescent staining. Extracellular/attached tachyzoites were labelled red while intracellular/penetrated tachyzoites were labelled green.

[5] = T. gondii RH-2 F in HFF, three experiments
[6] = HFF cells, top concentration 320 μM

Row | Compound | IC50 [1, 5] [µM] | IC90 [1, 5] [µM] | TD50, median toxicity dose, a measure of cytotoxicity against host cells [2, 6] [µM] | Fraction of PVs containing eight or more tachyzoites [3] | Inhibition of intracellular tachyzoite replication [3] | Inhibition of tachyzoite invasion [4] | IC50 ([1]; Toxoplasma gondii) [µM] | IC90 ([1]; Toxoplasma gondii) [µM] | TD50, median toxicity dose, a measure of cytotoxicity against host cells ([2]; human) [µM] | Inhibition of tachyzoite attachment [4]
1 | CC(=NN=C1SCC(=O)N1Cc1ccc(Cl)cc1)c1ccc[cH-]1.[Fe+2].c1cc[cH-]c1 [Compound 27, 3-(4-Chlorobenzyl)-2-((1-(ferrocen-2-yl)ethylidene)hydrazono)thiazolidin-4-one] | 10 | 55 | ≥320 | ≤ 1% | fairly strong inhibition | notable exceptions |  |  |  | 
2 | Nc1ccc(S(=O)(=O)Nc2ncccn2)cc1 [Sulfadiazine, reference compound] |  |  |  |  | robust replication inhibition |  | 43 | 219 | 281 | 
3 | CC(=NN=C1SCC(=O)N1Cc1cccc2ccccc12)c1ccc[cH-]1.[Fe+2].c1cc[cH-]c1 [Compound 30, 3-(Naphthalen-1-ylmethyl)-2-((1-(ferrocen-2-yl)ethylidene)hydrazono)thiazolidin-4-one] | 5 | 17 | ≥320 |  |  |  |  |  |  | significantly inhibited attachment
4 | CC(=NN=C1SCC(=O)N1Cc1cccc(F)c1)c1ccc[cH-]1.[Fe+2].c1cc[cH-]c1 [Compound 15, 3-(3-Fluorobenzyl)-2-((1-(ferrocen-2-yl)ethylidene)hydrazono)thiazolidin-4-one] | 8 | 57 | ≥320 |  |  |  |  |  |  | significantly inhibited attachment
5 | CC(=NN=C1SCC(=O)N1Cc1ccccc1[N+](=O)[O-])c1ccc[cH-]1.[Fe+2].c1cc[cH-]c1 [Compound 3, 3-(2-Nitrobenzyl)-2-((1-(ferrocen-2-yl)ethylidene)hydrazono)thiazolidin-4-one] | 15 | 78 | ≥320 |  |  | notable exceptions |  |  |  | 
6 | CC(=NN=C1SCC(=O)N1Cc1ccccc1F)c1ccc[cH-]1.[Fe+2].c1cc[cH-]c1 [Compound 12, 3-(2-Fluorobenzyl)-2-((1-(ferrocen-2-yl)ethylidene)hydrazono)thiazolidin-4-one] | 17 | 64 | ≥320 | 10–18% | modest inhibition |  |  |  |  | 
7 | CC(=NN=C1SCC(=O)N1Cc1ccc(F)cc1)c1ccc[cH-]1.[Fe+2].c1cc[cH-]c1 [Compound 18, 3-(4-Fluorobenzyl)-2-((1-(ferrocen-2-yl)ethylidene)hydrazono)thiazolidin-4-one] | 6 | 16 | ≥320 | 10–18% | modest inhibition |  |  |  |  | 
8 | CC(=NN=C1SCC(=O)N1Cc1ccc([N+](=O)[O-])cc1)c1ccc[cH-]1.[Fe+2].c1cc[cH-]c1 [Compound 9, 3-(4-Nitrobenzyl)-2-((1-(ferrocen-2-yl)ethylidene)hydrazono)thiazolidin-4-one] | 73 | 292 | 217 |  |  |  |  |  |  | significantly inhibited attachment
